According to patent US20100076017A1, “SITAMAQUINE TOSYLATE FOR THE TREATMENT OF LEISHMANIASIS” (priority 2006, published 2010):
Counter-ions that a name gives are not always drawn.

Experiment: hygroscopicity / developability characteristics of the salt form
Format: physicochemical
Details: solid salt form; poor developability characteristics
Source text: This means that reproducibility of standard batches of drug is very difficult, and that the drug would have a very short shelf life in those countries where it is particularly needed.

Which “relative humidity at which the salt is hygroscopic” value does the source give for `CCN(CC)CCCCCCNc1cc(OC)cc2c(C)ccnc12` [dihydrochloride salt, N,N-diethyl-N′-(6-methoxy-4-methyl-8-quinolinyl)-1,6-hexane diamine] here?
Its value is “about 60 % relative humidity”.
